This is an account of results in PubChem BioAssay (NCI).

Each structure is given as a SMILES string. Where “and” joins values, the source holds several entries; their conditions need not be identical. Equal values may be shown once.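 These data come from cells grown in 96-well plates and exposed to compound for 48 hours at five concentrations. GI50 marks 50% less growth. TGI marks complete inhibition of growth.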

For this assay, the system named is MDA-MB-468 breast. The experiment in a line: NCI-60 cell line screen, 48 h.
In the case of `COc1cc(/C=C/C(=O)c2cc(OC)c(OC)c(OC)c2)cc(OC)c1OC`, the GI50 was 3.07 µM and the TGI worked out at 14.8 µM.
Take `COc1ccc(-c2[nH]ncc2-c2cc(OC)c(OC)c(OC)c2)cc1`: the GI50 is below 0.01 µM and the TGI was determined as 5.56 µM.
For the compound `CC(=O)OC1=C2C(CC3C4CC=C5CC(OC(C)=O)CCC5(C)C4CCC23C)C2C(=O)N(Cc3ccccc3)C(=O)C2C1` (centres undefined), the GI50 was 2.84 µM and the TGI stood at 14.9 µM.
In the case of `CN(C)CCCC(=O)Nc1ccc(Cn2nnc3c2C(=O)c2nnn(Cc4ccc(NC(=O)CCCN(C)C)cc4)c2C3=O)cc1`, the GI50 was 1.3 µM and the TGI is 2.97 µM.
The matching figures for `CCCCc1nc2cc(/C=C/C(=O)NO)ccc2n1CCN(CC)CC`: 0.177 µM and 1.91 µM.
`c1ccc2c(c1)ccc1c3ccccc3ccc21`: the GI50 is 8.59 µM and the TGI was above 50 µM.
On the same counts, the results for `COc1cccc(C2C(C#N)=C(N)Oc3cc(OC)ccc32)c1` (centres undefined) are 0.0322 µM and above 60 µM.
For `COc1ccc(-c2nn(-c3cccc(NC(=O)Nc4cccc(C(F)(F)F)c4)c3)cc2-c2ccncc2)cc1Cl`, the GI50 is 1.54 µM and the TGI is 6.47 µM.
On the same counts, the results for `COC1CCC(n2c([C@@H]3CCCC(=O)N3c3ccc(F)c(F)c3)nc3cc(-c4c(C)noc4C)ccc32)CC1` (some centres undefined) are 3.95 µM and 28.4 µM.
For `COc1ccc(Cn2cc(Cn3c(=O)c(-c4nc5ccccc5[nH]4)cc4ccccc43)nn2)c(OC)c1OC`, the GI50 is 0.112 µM and 0.254 µM.
In the case of `NC(N)=Nc1ccc(Oc2ccc(Nc3ccc(Cl)c(C(F)(F)F)c3)cc2)cc1`, the GI50 was 1.55 µM and the TGI was found to be 3.39 µM.
As to `CC(C)[C@@H](CS(=O)(=O)C(C)C)N1C(=O)[C@@](C)(CC(=O)O)C[C@H](c2cccc(Cl)c2)[C@H]1c1ccc(Cl)cc1`, the GI50 was 11.6 µM and the TGI was 45 µM.
`O=C1C(=O)c2c(nc3ncccn23)-c2ccccc21`: the GI50 is 0.205 µM and the TGI was 0.555 µM.
As to `Nc1nc(Nc2ccc3c(c2)CCC(N2CCCC2)CC3)nn1-c1cc2c(nn1)-c1ccccc1CCC2` (centres undefined), the GI50 was 1.4 µM and the TGI was 2.9 µM.
Regarding `COc1cc(C2c3cc4c(cc3OC(N3CCOCC3)C2C)OCO4)cc(OC)c1OC(C)=O` (centres undefined), the GI50 was 20 µM and the TGI was above 100 µM.
Regarding `Cc1ccccc1NC(=O)c1sc2nc3c(cc2c1N)C(=O)CCC3`, the GI50 is 0.529 µM and the TGI was found to be 6.21 µM.
Take `CC(C)(C)c1ccc(C(=O)Nc2sc3c(c2C(N)=O)CC/C(=N\O)C3)cc1`: the GI50 was 3.06 µM and the TGI is 9.38 µM.
With `COc1ccc2sc3c(NCCCNCCO)nc4ccccc4c3c(=O)c2c1`, the GI50 was 1.73 µM and the TGI came out at 3.41 µM.
For `CN1CCN(c2cc(Nc3cc(C4CC4)[nH]n3)nc(Nc3ccc(CC(=O)NCc4cccc(F)c4)cc3)n2)CC1`, the GI50 was 2.6 µM and the TGI is 16.7 µM.
The matching figures for `Nc1c(O)c(S(=O)(=O)O)c(O)c2c1C(=O)c1ccccc1C2=O`: 2.1 µM and 5.98 µM.
Turning to `Oc1ccc(-c2nc3ccc4[nH]ncc4c3c3c2CCCC3)c2cccnc12`, the GI50 was 0.787 µM and the TGI came to 2.02 µM.
The matching figures for `NCC(=O)CCC(=O)O`: above 100 µM and above 100 µM.
For the compound `CC(C)(C)n1cc(-c2ccnc(NCCNS(=O)(=O)c3cccc4ccccc34)c2)c(-c2cccc(F)c2)n1`, the GI50 was 11 µM and the TGI amounted to 33.6 µM.
For the compound `C#CC#CC#CC#CC#CC#CC#CC#CCC1OC[C@H](COC(=O)O[C@@H](C(=O)O[C@H]2C[C@@]3(O)[C@@H](OC(=O)c4ccccc4)[C@@H]4[C@]5(OC(C)=O)CO[C@@H]5C[C@H](O)[C@@]4(C)C(=O)[C@H](OC(C)=O)C(=C2C)C3(C)C)[C@@H](NC(=O)c2ccccc2)c2ccccc2)O1` (some centres undefined), the GI50 was 0.139 µM and the TGI stood at 0.922 µM.
As for `CN1c2ccccc2C(C)(C)C12CC(c1ccc(Cl)c(S(=O)(=O)N3CCCC3)c1)=NO2` (centres undefined), the GI50 is above 100 µM and the TGI was above 100 µM.
